Test results reported in patent US7214675B2, “Urea substituted imidazoquinoline ethers” (3M Innovative Properties Company, priority 2000, dated 2007).

Key:
[1] = system: tumor necrosis factor (α) induction in human peripheral blood mononuclear cells (PBMC); experiment: Cytokine induction in human cells: tumor necrosis factor (α) secreted by PBMC, ELISA or IGEN assay; type: cell-based; conditions: lowest concentration found to induce tumor necrosis factor, incubated 18 to 24 hours at 37° C.
Source text: (§1) An in vitro human blood cell system is used to assess cytokine induction. Activity is based on the measurement of interferon and tumor necrosis factor (α) (IFN and TNF, respectively) secreted into culture media as described by Testerman et. al. In “Cytokine Induction by the Immunomodulators Imiquimod and S-27609”, Journal of Leukocyte Biology, 58, 365–372 (September, 1995).
(§2) Whole blood from healthy human donors is collected by venipuncture into EDTA vacutainer tubes. Peripheral blood mononuclear cells (PBMC) are separated from whole blood by density gradient centrifugation using Histopaque®-1077. Blood is diluted 1:1 with Dulbecco's Phosphate Buffered Saline (DPBS) or Hank's Balanced Salts Solution (HBSS). The PBMC layer is collected and washed twice with DPBS or HBSS and resuspended at 4×10^6 cells/mL in RPMI complete. The PBMC suspension is added to 48 well flat bottom sterile tissue culture plates (Costar, Cambridge, Mass. or Becton Dickinson Labware, Lincoln Park, N.J.) containing an equal volume of RPMI complete media containing test compound.
(§3) The compounds are solubilized in dimethyl sulfoxide (DMSO). The DMSO concentration should not exceed a final concentration of 1% for addition to the culture wells. The compounds are generally tested at concentrations ranging from 30–0.014 μM.
(§4) The solution of test compound is added at 60 μM to the first well containing RPMI complete and serial 3 fold dilutions are made in the wells. The PBMC suspension is then added to the wells in an equal volume, bringing the test compound concentrations to the desired range (30–0.014 μM). The final concentration of PBMC suspension is 2×10^6 cells/mL. The plates are covered with sterile plastic lids, mixed gently and then incubated for 18 to 24 hours at 37° C. in a 5% carbon dioxide atmosphere.
(§5) Following incubation the plates are centrifuged for 10 minutes at 1000 rpm (˜200×g) at 4° C. The cell-free culture supernatant is removed with a sterile polypropylene pipet and transferred to sterile polypropylene tubes. Samples are maintained at −30 to −70° C. until analysis. The samples are analyzed for interferon (α) by ELISA and for tumor necrosis factor (α) by ELISA or IGEN Assay
Tumor necrosis factor (α) (TNF) concentration is determined using ELISA kits available from Biosource International, Camarillo, Calif. Alternately, the TNF concentration can be determined by Origen® M-Series Immunoassay and read on an IGEN M-8 analyzer from IGEN International, Gaithersburg, Md. The immunoassay uses a human TNF capture and detection antibody pair from Biosource International, Camarillo, Calif. Results are expressed in pg/mL.
(§6) The table below lists the lowest concentration found to induce interferon and the lowest concentration found to induce tumor necrosis factor for each compound.

[2] = system: interferon (α) induction in human peripheral blood mononuclear cells (PBMC); experiment: Cytokine induction in human cells: interferon (α) secreted by PBMC, ELISA; type: cell-based; conditions: lowest concentration found to induce interferon, incubated 18 to 24 hours at 37° C.
Source text: as §1, §2, §3, §4, §5
Interferon (α) concentration is determined by ELISA using a Human Multi-Species kit from PBL Biomedical Laboratories, New Brunswick, N.J. Results are expressed in pg/mL.
as §6

CCOCc1nc2c(N)nc3ccccc3c2n1CCOCCNC(=O)NC1CCCCC1 [Example 54, N-(2-{2-[4-amino-2-(ethoxymethyl)-1H-imidazo[4,5-c]quinolin-1-yl]ethoxy}ethyl)-N′cyclohexylurea]
melting point: 161 to 164 °C

CCc1nc2c(N)nc3ccccc3c2n1CCOCCNC(=O)NC1CCCCC1 [Example 51, N-{2-[2-(4-amino-2-ethyl-1H-imidazo[4,5-c]quinolin-1-yl)ethoxy]ethyl}-N′-cyclohexylurea]
melting point: 198 to 200 °C

CCOCc1nc2c(N)nc3ccccc3c2n1CCOCCNC(=O)N1CCOCC1 [Example 55, N-(2-{2-[4-amino-2-(ethoxymethyl)-1H-imidazo[4,5-c]quinolin-1-yl]ethoxy}ethyl)morpholine-4-carboxamide]
melting point: 178 to 181 °C

COCCc1nc2c(N)nc3c(c2n1CCOCCNC(=O)Nc1ccccc1)CCCC3 [Example 2, N-(2-{2-[4-amino-2-(2-methoxyethyl)-6,7,8,9-tetrahydro-1H-imidazo[4,5-c]quinolin-1-yl]ethoxy}ethyl)-N′-phenylurea]
melting point: 180 to 182 °C

Cc1nc2c(N)nc3ccccc3c2n1CCOCCNC(=O)NC1CCCCC1 [Example 49, N-{2-[2-(4-amino-2-methyl-1H-imidazo[4,5-c]quinolin-1-yl)ethoxy]ethyl}-N′-cyclohexylurea]
melting point: 207 to 209 °C

Cc1nc2c(N)nc3ccccc3c2n1CCOCCNC(=O)Nc1ccccc1 [Example 48, N-{2-[2-(4-amino-2-methyl-1H-imidazo[4,5-c]quinolin-1-yl)ethoxy]ethyl}-N′-phenylurea]
melting point: 193 to 195 °C

CCc1nc2c(N)nc3ccccc3c2n1CCOCCNC(=O)N1CCOCC1 [Example 52, N-{2-[2-(4-amino-2-ethyl-1H-imidazo[4,5-c]quinolin-1-yl)ethoxy]ethyl}morpholine-4-carboxamide]
melting point: 182 to 184 °C

CCOCc1nc2c(N)nc3ccccc3c2n1CCOCCNC(=O)Nc1ccccc1 [Example 53, N-(2-{2-[4-amino-2-(ethoxymethyl)-1H-imidazo[4,5-c]quinolin-1-yl]ethoxy}ethyl)-N′-phenylurea]
melting point: 183 to 186 °C

COCCc1nc2c(N)nc3ccccc3c2n1CCOCCN(C)C(=O)Nc1ccccc1 [Example 3, N-(2-{2-[4-amino-2-(2-methoxyethyl)-1H-imidazo[4,5-c]quinolin-1-yl]ethoxy}ethyl)-N-methyl-N′-phenylurea]
minimal effective concentration [1]: 0.37 µM
melting point: 184.8 to 185.8 °C
minimal effective concentration [2]: 0.01 µM
